From US20110244047A1, “FILM-FORM PREPARATION AND METHOD FOR PRODUCING THE SAME” (NITTO DENKO CORPORATION, priority 2010, published 2011)

Assay: Particle size of the drug particles used (electron microscope, 200 particles)
Type: physicochemical
Conditions: drug particles before incorporation
Procedure: The various drug particles used in the Examples and Comparative Examples were obtained passing the powder through a 32 μm, 50 μm or 90 μm sieve after pulverization, or obtained fine particles by a jet mill (product of Hosokawa Micron Group, spiral jet mill model 50AS) or a spray dryer (product of Büchi Labortechnik AG, mini spray dryer model B-290) after pulverization. The particle sizes of these drug particles was measured by electron microscope (product of Hitachi High-Technologies Corp., model TM-1000) and the 50 vol % average particle size was calculated from the measurement results of 200 particles. This value was used as the particle size index of the particles.

| 50 vol % average particle size | SMILES |
| --- | --- |
| 180.5 um | COc1ccc2[nH]cc(CCNC(C)=O)c2c1 [Melatonin particles C, Melatonin] |
| 2.1 um | COc1ccc2[nH]cc(CCNC(C)=O)c2c1 [Melatonin particles A, Melatonin] |

Continued, compound first:

| SMILES | 50 vol % average particle size |
| --- | --- |
| COc1ccc2[nH]cc(CCNC(C)=O)c2c1 [Melatonin particles B, Melatonin] | 28.4 um |
| COc1ccc2c(c1)c(CC(=O)O)c(C)n2C(=O)c1ccc(Cl)cc1 [Indomethacin particles, Indomethacin] | 1.8 um |
| CC(C(=O)O)c1cccc(C(=O)c2ccccc2)c1 (centres unmarked) [Ketoprofen particles, Ketoprofen] | 1.7 um |
